What all share (assay type): biochemical
For test [1], the target named is T1, CYP1A2 (Homo sapiens, UniProt P05177).
T1 construct: 0.1 mg/mL protein human liver microsomes (BD Gentest); tissue BD Gentest; host or cells: human liver microsomes
T1 sequence (P05177 1-516): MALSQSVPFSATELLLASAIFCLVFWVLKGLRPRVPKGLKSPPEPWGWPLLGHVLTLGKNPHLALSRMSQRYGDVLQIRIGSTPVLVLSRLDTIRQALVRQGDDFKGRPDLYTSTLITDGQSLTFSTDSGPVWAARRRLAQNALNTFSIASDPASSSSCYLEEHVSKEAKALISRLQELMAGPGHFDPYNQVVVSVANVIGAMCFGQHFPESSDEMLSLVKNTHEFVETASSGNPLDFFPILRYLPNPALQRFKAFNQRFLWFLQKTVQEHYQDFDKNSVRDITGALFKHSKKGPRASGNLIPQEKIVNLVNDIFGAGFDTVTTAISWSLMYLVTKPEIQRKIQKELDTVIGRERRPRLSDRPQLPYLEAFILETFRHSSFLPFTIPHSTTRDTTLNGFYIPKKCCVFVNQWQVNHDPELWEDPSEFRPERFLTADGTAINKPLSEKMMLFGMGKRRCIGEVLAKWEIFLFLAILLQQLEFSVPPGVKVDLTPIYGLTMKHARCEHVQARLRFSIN
The experiment in a line: Cocktail assay for CYPs, phenacetin O-deethylation (CYP1A2), human liver microsomes. The following applies: 10 μM phenacetin, 0.1 mg/mL human liver microsomes, 10 min at 37° C.; read-out: CYP IC50 (nM) 1A2. The essentials:
(§1)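 Pooled human liver microsomes (0.1 mg/mL) with a probe cocktail of 10 μM phenacetin, 5 μM dextromethorphan and 2 μM midazolam plus NADPH, pH 7.4, 10 min at 37° C. Each metabolite was quantified by LC/MS/MS against a tolbutamide internal standard. IC50 came from % inhibition at 6 concentrations (e.g. 0.0032–10 μM) by non-linear regression.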
A general note: Liver microsomes are vesicles of endoplasmic reticulum, rich in cytochrome P450 enzymes.

The target in test [2] is T2, CYP2C9 (Homo sapiens, UniProt P11712).
T2 construct: 0.1 mg/mL protein human liver microsomes (BD Gentest); tissue BD Gentest; host or cells: human liver microsomes
The experiment in a line: Cocktail assay for CYPs, diclofenac 4′-hydroxylation (CYP2C9), human liver microsomes. The following applies: 5 μM diclofenac, 0.1 mg/mL human liver microsomes, 10 min at 37° C.; read-out: CYP IC50 (nM) 2C9. The essentials:
(§2)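 Pooled human liver microsomes (0.1 mg/mL) with probe cocktail incl. 5 μM diclofenac (CYP2C9) and 30 μM mephenytoin (CYP2C19), 1 mM NADPH, pH 7.4 phosphate buffer, 10 min at 37° C. Metabolites quantified by LC/MS/MS against internal standard; % inhibition versus no-inhibitor control, IC50 by non-linear regression.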

The target of test [3] is T3, CYP2C19 (Homo sapiens, UniProt P33261).
T3 construct: 0.1 mg/mL protein human liver microsomes (BD Gentest); tissue BD Gentest; host or cells: human liver microsomes
In words: Cocktail assay for CYPs, mephenytoin 4′-hydroxylation (CYP2C19), human liver microsomes. To be noted: 30 μM mephenytoin, 0.1 mg/mL human liver microsomes, 10 min at 37° C.; read-out: CYP IC50 (nM) 2C19. The essentials:
as §2

The target in test [4] is T4, CYP2D6 (Homo sapiens, UniProt P10635).
T4 construct: 0.1 mg/mL protein human liver microsomes (BD Gentest); tissue BD Gentest; host or cells: human liver microsomes
In words: Cocktail assay for CYPs, dextromethorphan O-demethylation (CYP2D6), human liver microsomes. To be noted: 5 μM dextromethorphan, 0.1 mg/mL human liver microsomes, 10 min at 37° C.; read-out: CYP IC50 (nM) 2D6. An outline of the steps: as §1

The target in test [5] is T5, CYP3A4 (Homo sapiens, UniProt P08684). The experiment in a line: Cocktail assay for CYPs, midazolam 1′-hydroxylation (CYP3A4), human liver microsomes. Set-up: 0.1 mg/mL protein human liver microsomes (BD Gentest); tissue BD Gentest; host or cells: human liver microsomes. To be noted: 2 μM midazolam, 0.1 mg/mL human liver microsomes, 10 min at 37° C.; read-out: CYP IC50 (nM) 3A4 (MDZ). An outline of the steps:
as §1
Target sequence in this assay (P08684 whole entry): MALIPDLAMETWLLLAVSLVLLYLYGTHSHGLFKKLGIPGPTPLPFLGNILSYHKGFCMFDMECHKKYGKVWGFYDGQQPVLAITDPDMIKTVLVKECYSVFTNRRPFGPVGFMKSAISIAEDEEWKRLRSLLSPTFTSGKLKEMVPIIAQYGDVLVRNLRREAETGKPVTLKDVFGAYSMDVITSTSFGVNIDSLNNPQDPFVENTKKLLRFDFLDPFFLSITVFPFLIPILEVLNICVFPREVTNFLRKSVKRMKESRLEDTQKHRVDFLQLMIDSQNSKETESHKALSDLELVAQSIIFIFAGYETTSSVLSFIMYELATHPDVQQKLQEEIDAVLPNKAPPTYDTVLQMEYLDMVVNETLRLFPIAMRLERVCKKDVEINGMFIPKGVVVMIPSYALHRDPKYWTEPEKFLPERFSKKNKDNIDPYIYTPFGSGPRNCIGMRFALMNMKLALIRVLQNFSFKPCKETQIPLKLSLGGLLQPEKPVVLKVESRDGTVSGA

For test [6], the target named is T5, CYP3A4. In words: IC50 vs CYP3A by inhibition of lopinavir metabolism in human liver microsomes. Also on record: 0.01 mg/mL protein human liver microsomes (BD Gentest); tissue BD Gentest; host or cells: human liver microsomes. To be noted: 1.5 μM lopinavir, 0.01 mg/mL human liver microsomes, 8 min at 37° C.; read-out: CYP IC50 (nM) 3A4 (LPV). An outline of the steps: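 Human liver microsomes (0.01 mg/mL) with 1.5 μM lopinavir, 1 mM NADPH, 3.3 mM MgCl2 in 100 mM potassium phosphate pH 7.4, 8 min at 37 °C, six compound concentrations. Summed M2/M3/M4 hydroxy metabolites quantified by LC/MS/MS against tolbutamide; % inhibition normalised between no-inhibitor and 5 μM ketoconazole controls, IC50 by non-linear regression.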
Target sequence in this assay (P08684 2-503): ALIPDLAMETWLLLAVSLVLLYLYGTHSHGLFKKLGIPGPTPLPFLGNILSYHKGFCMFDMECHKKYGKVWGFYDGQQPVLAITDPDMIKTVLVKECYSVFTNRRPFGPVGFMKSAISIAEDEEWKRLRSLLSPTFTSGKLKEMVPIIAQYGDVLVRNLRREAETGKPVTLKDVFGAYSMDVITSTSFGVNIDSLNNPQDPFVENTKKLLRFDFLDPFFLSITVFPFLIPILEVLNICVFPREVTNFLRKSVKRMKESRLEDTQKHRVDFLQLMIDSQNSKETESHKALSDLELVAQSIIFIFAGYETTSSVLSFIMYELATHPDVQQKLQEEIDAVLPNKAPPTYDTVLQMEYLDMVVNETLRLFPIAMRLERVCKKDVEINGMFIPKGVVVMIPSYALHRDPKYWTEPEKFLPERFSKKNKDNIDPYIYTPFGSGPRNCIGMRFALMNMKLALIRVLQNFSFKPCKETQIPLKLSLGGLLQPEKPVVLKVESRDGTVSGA

We go through 14 compounds from patent publication US9975888B2, “Aryl linked imidazole and triazole derivatives and methods of use thereof for improving the pharmacokinetics of a drug” (MERCK SHARP & DOHME CORP., priority 2013, dated 2018).

T2 sequence (P11712 whole entry): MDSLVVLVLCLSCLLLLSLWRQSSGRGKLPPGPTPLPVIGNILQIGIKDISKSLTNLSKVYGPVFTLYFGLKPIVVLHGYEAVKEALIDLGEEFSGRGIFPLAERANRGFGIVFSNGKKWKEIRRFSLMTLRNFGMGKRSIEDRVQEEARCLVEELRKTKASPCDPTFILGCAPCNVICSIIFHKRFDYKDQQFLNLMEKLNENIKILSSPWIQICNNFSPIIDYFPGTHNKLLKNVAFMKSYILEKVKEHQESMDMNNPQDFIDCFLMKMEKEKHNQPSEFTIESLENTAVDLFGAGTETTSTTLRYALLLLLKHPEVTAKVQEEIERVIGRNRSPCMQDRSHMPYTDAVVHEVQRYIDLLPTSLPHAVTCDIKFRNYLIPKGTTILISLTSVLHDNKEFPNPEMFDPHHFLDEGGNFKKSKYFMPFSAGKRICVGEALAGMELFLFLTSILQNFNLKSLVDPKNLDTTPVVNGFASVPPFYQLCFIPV
T4 sequence (P10635 whole entry): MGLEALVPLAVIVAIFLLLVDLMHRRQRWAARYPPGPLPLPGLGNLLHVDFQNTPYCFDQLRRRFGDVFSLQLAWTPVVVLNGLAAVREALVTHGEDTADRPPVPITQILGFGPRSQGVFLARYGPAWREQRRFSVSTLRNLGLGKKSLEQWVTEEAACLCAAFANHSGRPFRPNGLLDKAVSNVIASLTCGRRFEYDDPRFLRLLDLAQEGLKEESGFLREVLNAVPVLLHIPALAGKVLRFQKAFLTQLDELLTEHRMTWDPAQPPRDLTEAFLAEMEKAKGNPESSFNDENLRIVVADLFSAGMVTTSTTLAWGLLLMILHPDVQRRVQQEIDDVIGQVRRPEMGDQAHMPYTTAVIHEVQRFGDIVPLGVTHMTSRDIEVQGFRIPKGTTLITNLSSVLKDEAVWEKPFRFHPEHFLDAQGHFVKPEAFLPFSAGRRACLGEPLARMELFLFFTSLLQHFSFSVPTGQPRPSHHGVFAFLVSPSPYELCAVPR
T3 sequence (P33261 whole entry): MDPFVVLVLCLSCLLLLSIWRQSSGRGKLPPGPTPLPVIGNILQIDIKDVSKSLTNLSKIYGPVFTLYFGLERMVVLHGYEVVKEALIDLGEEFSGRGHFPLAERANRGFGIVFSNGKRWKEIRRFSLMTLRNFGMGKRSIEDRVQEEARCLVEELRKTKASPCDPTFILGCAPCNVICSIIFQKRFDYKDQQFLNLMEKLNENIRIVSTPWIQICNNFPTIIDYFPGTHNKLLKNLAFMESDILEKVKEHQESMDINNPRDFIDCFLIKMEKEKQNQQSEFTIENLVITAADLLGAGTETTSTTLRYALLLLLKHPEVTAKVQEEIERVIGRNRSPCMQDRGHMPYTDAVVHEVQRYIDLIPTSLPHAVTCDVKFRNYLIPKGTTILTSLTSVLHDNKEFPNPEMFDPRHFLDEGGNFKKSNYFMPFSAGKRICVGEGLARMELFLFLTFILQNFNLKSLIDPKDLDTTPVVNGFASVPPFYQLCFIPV

A word on the IC50: it is the midpoint of a concentration-inhibition curve. On to `O=C(C1CCOCC1)N1CCCC1c1cccc(-c2cncn2CCc2ccc(F)cc2)c1` (single isomer, unassigned) [Compound 49b, (R or S)-(2-(3-(1-(4-fluorophenethyl)-1H-imidazol-5-yl)phenyl)pyrrolidin-1-yl)(tetrahydro-2H-pyran-4-yl)methanone], for which the concentration for half-maximal inhibition (IC50) was greater than 10000 nM in test [1]; greater than 10000 nM in test [2]; 6910 nM in test [3]; greater than 10000 nM in test [4]; 58.6 nM in test [5]; greater than 100 nM in test [6].
For `O=S(=O)(c1ccc(N2CCC(O)CC2)nc1)N1CCCC1c1cccc(-c2cncn2CCc2ccc(F)cc2)c1` (single isomer, unassigned) [Compound 57b, (R or S)-1-(5-((2-(3-(1-(4-fluorophenethyl)-1H-imidazol-5-yl)phenyl)pyrrolidin-1-yl)sulfonyl)pyridin-2-yl) piperidin-4-ol], the concentration for half-maximal inhibition (IC50) came to 190 nM in test [1]; 209 nM in test [2]; 393 nM in test [3]; 2230 nM in test [4]; 4.52 nM in test [5]; 1.4 nM in test [6].
For `O=C(c1cccnc1)N1CCCC1c1ccccc1-c1cncn1CCc1ccc(F)cc1` (single isomer, unassigned) [Compound 42a, (R or S)-(2-(2-(1-(4-fluorophenethyl)-1H-imidazol-5-yl)phenyl)pyrrolidin-1-yl) (pyridin-3-yl) methanone], the IC50 in test [1] was greater than 10000 nM; in test [2] it was greater than 10000 nM; in test [3], greater than 10000 nM; in test [4] it was 1830 nM; in test [5] it was 64.4 nM; in test [6] it was no less than 100 nM.
Regarding `O=S(=O)(c1ccc(N2CCC(O)CC2)nc1)N1CCCC1c1ccccc1-c1cncn1CCc1ccc(F)cc1` (single isomer, unassigned) [Compound 33, (R or S)-1-(5-((2-(2-(1-(4-fluorophenethyl)-1H-imidazol-5-yl)phenyl)pyrrolidin-1-yl)sulfonyl)pyridin-2-yl) piperidin-4-ol], the half-inhibitory concentration (IC50) in test [1] was greater than 10000 nM; in test [2], 2890 nM; in test [3] it was greater than 10000 nM; in test [4], 6500 nM; in test [5], 22.5 nM; in test [6], 12.6 nM.
For `O=S(=O)(c1ccc(N2CCOCC2)nc1)N1CCCC1c1ccccc1-c1cncn1CCc1ccc(F)cc1` (stereo not drawn) [Compound 29, 4-(5-((2-(2-(1-(4-fluorophenethyl)-1H-imidazol-5-yl)phenyl)pyrrolidin-1-yl)sulfonyl)pyridin-2-yl)morpholine], the half-inhibitory concentration (IC50) in test [1] is 3820 nM; in test [2], 1860 nM; in test [3], 3260 nM; in test [4] it was 2930 nM; in test [5] it was 8.3 nM; in test [6], 7.6 nM.
As for `O=C(c1ccc(N2CCOCC2)nc1)N1CCCC1c1ccccc1-c1cncn1CCc1ccc(F)cc1` (single isomer, unassigned) [Compound 43b, (R or S)-(2-(2-(1-(4-fluorophenethyl)-1H-imidazol-5-yl)phenyl)pyrrolidin-1-yl) (6-morpholino-pyridin-3-yl) methanone], the 50% inhibitory concentration (IC50) in test [1] is 4490 nM; in test [2], 7950 nM; in test [3], greater than 10000 nM; in test [4] it was 5360 nM; in test [5], 5.8 nM; in test [6], 2 nM.
As for `O=S(=O)(NCc1ccccc1-c1cncn1CCc1ccc(F)cc1)c1cccnc1` [Compound 17, N-(2-(1-(4-fluorophenethyl)-1H-imidazol-5-yl)benzyl)pyridine-3-sulfonamide], the IC50 in test [1] is greater than 10000 nM; in test [2], greater than 10000 nM; in test [3] it was greater than 10000 nM; in test [4] it was 5200 nM; in test [5], 10.5 nM; in test [6] it was 35.9 nM.
With `CS(=O)(=O)N1CCCC1c1ccccc1-c1cncn1CCc1ccc(F)cc1` (single isomer, unassigned) [Compound 23b, (R or S)-1-(4-fluorophenethyl)-5-(2-(1-(methylsulfonyl)pyrrolidin-2-yl)phenyl)-1H-imidazole], the IC50 in test [1] is greater than 10000 nM; in test [2], greater than 10000 nM; in test [3], greater than 10000 nM; in test [4] it was greater than 10000 nM; in test [5] it was 17 nM; in test [6], 17.2 nM.
Turning to `CC(C)(C)OC(=O)N1CCCC1c1ccccc1-c1cncn1C1CC1` (stereo not drawn) [Compound 37, tert-butyl 2-(2-(1-cyclopropyl-1H-imidazol-5-yl)phenyl) pyrrolidine-1-carboxylate], the IC50 in test [1] was greater than 10000 nM; in test [2] it was greater than 10000 nM; in test [3] it was 5810 nM; in test [4], greater than 10000 nM; in test [5], 17.8 nM; in test [6], 35.2 nM.
In the case of `COc1ccc(OC)c(S(=O)(=O)N2CCCC2c2cccc(-c3cncn3CCc3ccc(F)cc3)c2)c1` (single isomer, unassigned) [Compound 53a, (R or S)-5-(3-(1-((2,5-dimethoxyphenyl)sulfonyl)pyrrolidin-2-yl)phenyl)-1-(4-fluorophenethyl)-1H-imidazole], the IC50 in test [1] was 1080 nM; in test [2], 165 nM; in test [3], 78.6 nM; in test [4] it was 1370 nM; in test [5] it was 8.65 nM; in test [6], 2 nM.
Turning to `CN(C)c1ccc(S(=O)(=O)N2CCCC2c2ccccc2-c2cncn2CCc2ccc(F)cc2)cn1` (single isomer, unassigned) [Compound 28b, (R or S)-5-((2-(2-(1-(4-fluorophenethyl)-1H-imidazol-5-yl)phenyl)pyrrolidin-1-yl)sulfonyl)-N,N-dimethylpyridin-2-amine], the half-maximal inhibitory concentration (IC50) in test [1] was greater than 10000 nM; in test [2], 1150 nM; in test [3], 4980 nM; in test [4], greater than 10000 nM; in test [5], 11.8 nM; in test [6], 10.1 nM.
As to `CN1CCN(c2ccc(S(=O)(=O)N3CCc4c(cccc4-c4cncn4CCc4ccc(F)cc4)C3)cn2)CC1` [Compound 59, 5-(1-(4-fluorophenethyl)-1H-imidazol-5-yl)-2-((6-(4-methylpiperazin-1-yl)pyridin-3-yl)sulfonyl)-1,2,3,4-tetrahydroisoquinoline], the IC50 is greater than 10000 nM in test [1]; 4530 nM in test [2]; 5610 nM in test [3]; 1980 nM in test [4]; 4 nM in test [5]; 1.5 nM in test [6].
Turning to `CC(C)OC(=O)N1CCCC1c1ccccc1-c1cncn1CCc1ccc(F)cc1` (single isomer, unassigned) [Compound 39b, (R or S)-isopropyl 2-(2-(1-(4-fluorophenethyl)-1H-imidazol-5-yl)phenyl) pyrrolidine-1-carboxylate], the IC50 in test [1] was greater than 10000 nM; in test [2] it was 6380 nM; in test [3], 4740 nM; in test [4], 8580 nM; in test [5], 34.5 nM; in test [6], 28.2 nM.
Turning to `O=C(c1cccnc1)N1CCCC1c1ccccc1-c1cncn1CCc1ccc(F)cc1` (single isomer, unassigned) [Compound 42b, (R or S)-(2-(2-(1-(4-fluorophenethyl)-1H-imidazol-5-yl)phenyl)pyrrolidin-1-yl) (pyridin-3-yl) methanone], the half-maximal inhibitory concentration (IC50) was greater than 10000 nM in test [1]; greater than 10000 nM in test [2]; greater than 10000 nM in test [3]; greater than 10000 nM in test [4]; 13.1 nM in test [5]; 9.3 nM in test [6].
